Values of other authors as cited in patent US8415392B2, “Combined use of L-carnitine, acetyle L-carnitine and propionyl L-carnitine for the treatment of oligoasthenoteratospermia” (Sigma-Tau Industrie Farmaceutiche Riunite, S.p.A., priority 2002, dated 2013).

Key:
[1] = system: patients with idiopathic oligoastheno-spermia; conditions: acetyl L-carnitine
[2] = system: patients with idiopathic asthenospermia; conditions: L-carnitine administration
[3] = Fertilität 4.1-4, 1988, L-carnitine therapy

| Structure (SMILES) | sperm density [1] | sperm motility [1] | patients in whom sperm motility improved and sperm count increased [2] | sperm motility (infertile patients; Andrologia 26:155-159, 1994, quantitative and qualitative) | carnitine levels in the spermatozoa (infertile patients; [3]) | sperm motility and sperm count (infertile patients; [3]) | sperm quality (infertile patients; Loumbakis et al. 1996, preliminary data) |
| --- | --- | --- | --- | --- | --- | --- | --- |
| CC(=O)O[C@H](CC(=O)[O-])C[N+](C)(C)C [acetyl L-carnitine] | no effect | progressive increase | – | – | – | – | – |
| C[N+](C)(C)C[C@H](O)CC(=O)[O-] [L-carnitine] | – | – | 37 out of 47 | significant improvement | increase | increase | may have a positive effect |
